Active and inactive are the calls of the source.
Columns and labels:
[1] = molecular target: T1, Replicative DNA helicase DnaB (Mycobacterium tuberculosis, UniProt P9WMR3); assay: DnaB intein splicing inhibitors, dose response, biochemical, cell-free fluorescence (AID 449749); format: functional
T1 sequence (P9WMR3 whole entry): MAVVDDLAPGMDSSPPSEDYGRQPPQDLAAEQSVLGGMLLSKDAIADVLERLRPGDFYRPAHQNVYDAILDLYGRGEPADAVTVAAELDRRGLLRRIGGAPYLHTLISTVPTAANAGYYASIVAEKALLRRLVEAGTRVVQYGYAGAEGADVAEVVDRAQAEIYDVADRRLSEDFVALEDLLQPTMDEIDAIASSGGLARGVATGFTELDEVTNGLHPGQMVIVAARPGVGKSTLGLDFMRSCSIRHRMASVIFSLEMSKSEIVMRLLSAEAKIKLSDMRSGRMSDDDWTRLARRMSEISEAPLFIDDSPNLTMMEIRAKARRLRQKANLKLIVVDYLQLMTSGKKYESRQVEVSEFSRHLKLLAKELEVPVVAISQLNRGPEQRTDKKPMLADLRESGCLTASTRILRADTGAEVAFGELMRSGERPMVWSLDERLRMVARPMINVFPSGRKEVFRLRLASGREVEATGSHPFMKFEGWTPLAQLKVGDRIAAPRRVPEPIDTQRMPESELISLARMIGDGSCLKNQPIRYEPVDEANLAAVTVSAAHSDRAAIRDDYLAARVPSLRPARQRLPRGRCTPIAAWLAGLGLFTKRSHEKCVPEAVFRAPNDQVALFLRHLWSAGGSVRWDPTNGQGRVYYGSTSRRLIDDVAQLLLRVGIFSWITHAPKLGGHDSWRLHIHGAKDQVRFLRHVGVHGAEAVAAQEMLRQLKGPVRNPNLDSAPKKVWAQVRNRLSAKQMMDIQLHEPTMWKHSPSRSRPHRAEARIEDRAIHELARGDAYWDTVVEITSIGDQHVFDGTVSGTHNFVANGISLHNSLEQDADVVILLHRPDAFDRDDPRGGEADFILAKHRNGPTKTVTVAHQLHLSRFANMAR

Caspase-9 = Caspase-9 (Homo sapiens, UniProt P55211); assay: inhibitors of purified CASP9 protease – biochemical, fluorescence, plate reader, cherry-picked samples, selectivity assay for caspase-6 inhibitor project, dose response (AID 743293)
Caspase-7 = molecular target: T2, Caspase-7 (Homo sapiens, UniProt P55210); assay: caspase-7 enzyme inhibition, selectivity check – biochemical, DEVD-R110 fluorescence, cherry-pick, selectivity assay for caspase-6 inhibitor project, dose response (AID 743295); format: functional
T2 sequence (P55210 whole entry): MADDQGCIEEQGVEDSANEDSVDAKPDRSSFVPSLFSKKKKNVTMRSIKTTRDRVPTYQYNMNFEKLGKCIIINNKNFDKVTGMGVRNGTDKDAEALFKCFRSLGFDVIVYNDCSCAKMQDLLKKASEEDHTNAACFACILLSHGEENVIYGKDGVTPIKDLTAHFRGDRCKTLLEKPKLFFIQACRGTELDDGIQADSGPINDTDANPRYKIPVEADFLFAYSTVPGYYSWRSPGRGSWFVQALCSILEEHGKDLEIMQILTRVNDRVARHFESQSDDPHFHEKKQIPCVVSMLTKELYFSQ

[2] = viability loss in HeLa cells – cytotoxicity control for MgcRacGAP inhibitor project, dose response (AID 624300); format: functional
Nonstructural protein 1 = Nonstructural protein 1 (Influenza A virus, UniProt Q194T2); format: functional, Influenza A virus (A/California/07/2009(H1N1))
[3] = inhibition of ARNT PAS-B/TACC3 complex formation – biochemical, AlphaScreen, cherry-picked samples, confirmation (AID 651703); format: functional, Homo sapiens;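 further: His-tagged ARNT PAS-B domain paired with GST-TACC3 E629A dimer coactivator fragment; potency of inhibitors that break up the complex and lower AlphaScreen signal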
Caspase-3 = molecular target: T3, Caspase-3 (Homo sapiens, UniProt P42574); assay: Dose-response confirmation of uHTS inhibitor hits of Sentrin-Specific Protease 8 in a Caspase-3 Fluorescence assay.; format: functional
T3 sequence (P42574 whole entry): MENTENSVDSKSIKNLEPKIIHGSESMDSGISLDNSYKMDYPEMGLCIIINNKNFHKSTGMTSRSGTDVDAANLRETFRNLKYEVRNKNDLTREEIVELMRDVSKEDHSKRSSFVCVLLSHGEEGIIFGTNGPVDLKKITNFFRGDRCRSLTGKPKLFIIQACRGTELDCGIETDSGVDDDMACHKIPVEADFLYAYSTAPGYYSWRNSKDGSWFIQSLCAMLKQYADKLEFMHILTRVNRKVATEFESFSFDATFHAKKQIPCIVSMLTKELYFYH

[4] = molecular target: T4, Sentrin-specific protease 8 (Homo sapiens, UniProt Q96LD8); format: functional;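 further: kinetic enzyme assay of SENP8 cleaving a Nedd8 protein substrate, dose-response confirmation of screening hits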
T4 sequence (Q96LD8 whole entry): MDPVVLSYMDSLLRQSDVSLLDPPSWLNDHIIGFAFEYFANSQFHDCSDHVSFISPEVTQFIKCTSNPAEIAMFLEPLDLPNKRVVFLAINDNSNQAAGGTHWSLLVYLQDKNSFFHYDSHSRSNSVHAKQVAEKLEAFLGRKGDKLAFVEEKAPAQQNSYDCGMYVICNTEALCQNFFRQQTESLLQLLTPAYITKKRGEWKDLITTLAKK

[5] = molecular target: T5, RNA-binding protein pos-1 (Caenorhabditis elegans, UniProt G5EF15); assay: disruptors of C. elegans POS-1 RNA interaction – biochemical, fluorescence polarization, dose response (AID 1964);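 further: purified POS-1 fused to maltose binding protein made in E. coli; potency of compounds blocking POS-1 binding to fluorescent RNA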
T5 sequence (G5EF15 whole entry): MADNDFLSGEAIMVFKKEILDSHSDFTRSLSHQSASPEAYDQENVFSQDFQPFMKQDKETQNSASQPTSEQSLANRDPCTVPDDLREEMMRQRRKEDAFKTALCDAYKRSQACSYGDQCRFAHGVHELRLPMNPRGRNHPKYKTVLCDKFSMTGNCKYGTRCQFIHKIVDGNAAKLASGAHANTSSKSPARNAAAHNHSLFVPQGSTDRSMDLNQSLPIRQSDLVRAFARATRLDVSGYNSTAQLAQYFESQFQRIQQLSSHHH

[6] = molecular target: T6, Zinc finger protein mex-5 (Caenorhabditis elegans, UniProt Q9XUB2); assay: potency of MEX-5 RNA-binding blockers – biochemical, C. elegans, fluorescence polarization, dose response (AID 1960)
T6 sequence (Q9XUB2 whole entry): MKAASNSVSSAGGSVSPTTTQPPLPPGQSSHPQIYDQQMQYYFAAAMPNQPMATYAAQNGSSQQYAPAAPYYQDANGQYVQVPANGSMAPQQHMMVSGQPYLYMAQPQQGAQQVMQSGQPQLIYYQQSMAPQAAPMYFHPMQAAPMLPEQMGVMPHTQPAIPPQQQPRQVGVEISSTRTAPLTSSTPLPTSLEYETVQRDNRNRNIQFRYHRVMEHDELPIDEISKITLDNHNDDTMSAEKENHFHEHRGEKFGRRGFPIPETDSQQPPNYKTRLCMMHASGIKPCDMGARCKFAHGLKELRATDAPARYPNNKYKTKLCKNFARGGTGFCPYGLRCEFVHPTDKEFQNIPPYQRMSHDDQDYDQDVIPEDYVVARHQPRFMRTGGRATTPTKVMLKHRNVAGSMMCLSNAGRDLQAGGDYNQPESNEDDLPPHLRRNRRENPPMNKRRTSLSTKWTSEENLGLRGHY

Sequence of Nonstructural protein 1 (Q194T2 whole entry, the tested form may be a part): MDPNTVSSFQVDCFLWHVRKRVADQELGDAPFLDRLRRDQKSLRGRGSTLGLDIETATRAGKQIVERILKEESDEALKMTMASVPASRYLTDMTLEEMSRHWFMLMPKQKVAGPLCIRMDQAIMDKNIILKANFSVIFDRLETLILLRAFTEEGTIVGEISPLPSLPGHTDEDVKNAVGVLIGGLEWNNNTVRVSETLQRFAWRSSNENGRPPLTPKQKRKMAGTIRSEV
Sequence of Caspase-9 (P55211 1-315 limits assumed): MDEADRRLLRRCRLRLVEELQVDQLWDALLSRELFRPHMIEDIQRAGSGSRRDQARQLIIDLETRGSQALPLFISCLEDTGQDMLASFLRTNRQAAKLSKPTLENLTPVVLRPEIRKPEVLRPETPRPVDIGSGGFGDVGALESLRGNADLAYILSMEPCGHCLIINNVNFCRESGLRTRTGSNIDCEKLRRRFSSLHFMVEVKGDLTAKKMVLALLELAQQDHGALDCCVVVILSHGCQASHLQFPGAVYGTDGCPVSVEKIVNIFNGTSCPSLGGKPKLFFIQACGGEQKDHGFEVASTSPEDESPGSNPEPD
Sequence of Caspase-9 (P55211 331-416 limits assumed): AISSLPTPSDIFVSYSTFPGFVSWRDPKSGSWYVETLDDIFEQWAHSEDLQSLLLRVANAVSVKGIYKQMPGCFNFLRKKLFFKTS

For `O=C(NC1=C(Nc2ccc(F)cc2)C(=O)c2ccccc2C1=O)c1ccc(Cl)cc1`, which AC50 [1] is on record?
The AC50 was 11.8 µM (active).

For `Oc1nc(Nc2ccc(F)cc2)cc2ccccc12`, which AC50 (Caspase-9) is on record?
The AC50 was 3.04 µM (active).

What about the AC50 (Caspase-7) of the same molecule?
Its AC50 is 2.11 µM (active).

What does the source list for `CCN(CC)CCOc1ccc2c(c1)C(=NNC(=O)c1ccccn1)c1cc(OCCN(CC)CC)ccc1-2`?
CC50 [2]: 31.7 µM (active); IC50 (Nonstructural protein 1): 13.8 µM (active); AC50 [3]: 109 µM (active)

For `CN(C)c1cc(N/N=C\c2ccccc2)nc(N(C)C)n1`, which IC50 (Caspase-3) is on record?
The IC50 was 50.7 µM (active).

And the IC50 [4]?
Its IC50 is 0.661 µM (active).

Which results are given for `O=C(O)c1ccc2c(c1)[C@@H]1C=CC[C@@H]1[C@H](c1ccccn1)N2`?
EC50 [5]: 4.61 µM (inconclusive); EC50 [6]: 31.1 µM (inconclusive)
